The source made the active and inactive calls. The calls are words filed in the database; no cut-off is given here.
Legend:
H9c2 [1] = assay: Effect on oligomycin-inhibited leak respiration in […] H9C2 cells at 10 uM by high resolution oxygraphic analysis; assay type: functional, cell-based
[2] = Drug uptake in mitochondria of […] H9C2 cells at 1 x 10^-4 M after 2 hrs by LC-MS analysis; assay type: ADME; conditions: h9c2, 2 h, 100 µM
H9c2 [3] = assay: Effect on routine respiration in […] H9C2 cells at 10 uM by high resolution oxygraphic analysis; assay type: functional, cell-based
H9c2 [4] = assay: Effect on ATP production in […] H9C2 cells up to 10 uM after 24 hrs by CellTiter-Glo luminescent test; assay type: functional, cell-based
H9c2 [5] = assay: Effect on metabolic activity in […] H9C2 cells up to 10 uM incubated for 1 hr followed by paraquat addition measured after 24 hrs by CellTiter 96 Aqueous non-radioactive cell proliferation assay; assay type: functional, cell-based
H9c2 [6] = assay: Effect on maximal respiratory capacity in […] H9C2 cells at 10 uM by high resolution oxygraphic analysis; assay type: functional, cell-based
[7] = molecular target: Kir6.2/SUR1 (Rattus norvegicus) (UniProt P70673+Q09429); assay: Activation of Kir6.2/SUR1 in rat pancreatic islets assessed as residual glucose-induced insulin release at 10 uM relative to control
[8] = Drug uptake in cytosol of […] H9C2 cells at 1 x 10^-4 M after 2 hrs by LC-MS analysis; assay type: ADME, cell-based; conditions: 100 µM

Drug uptake [2]	Activity [7]	Drug uptake [8]	Compound	Activity (H9c2 [1])	Activity (H9c2 [3])	Activity (H9c2 [4])	Activity (H9c2 [5])	Activity (H9c2 [6])
Active	27%	Active	C[C@H](COC(=O)C[P+](c1ccccc1)(c1ccccc1)c1ccccc1)NC1=NS(=O)(=O)c2cc(Cl)ccc2N1.[Cl-]	Active	inactive	inactive	inactive	inactive
	56%		C[C@H](COC(=O)CC[P+](c1ccccc1)(c1ccccc1)c1ccccc1)NC1=NS(=O)(=O)c2cc(Cl)ccc2N1		inactive	inactive	inactive	inactive
	73.9%		CC1=Nc2ccc(Cl)cc2S(=O)(=O)N1					
	63.7%		C[C@H](COC(=O)CCC[P+](c1ccccc1)(c1ccccc1)c1ccccc1)NC1=NS(=O)(=O)c2cc(Cl)ccc2N1		inactive	inactive	inactive	inactive

From ChEMBL document CHEMBL2440097, “Triphenylphosphonium salts of 1,2,4-benzothiadiazine 1,1-dioxides related to diazoxide targeting mitochondrial ATP-sensitive potassium channels” (Bioorg Med Chem Lett, 2013)
